Measured values from ChEMBL document CHEMBL3507680, “University of Dundee, Gates Library screen for HepG2 cell viability”.

assay: Human HepG2 cell viability assay in 384 well format; assay type: toxicity, cell-based; set-up: dose 125 nL, time 70.5 hour; cytotoxicity at 70.5 h: concentration not given beside the values; settings: HepG2 cells, read-out: Inhibition

Row | Compound | cytotoxicity at 70.5 h [%]
1 | O=C(COCC1CC1)N1CCCC(n2cccn2)C1 (configuration not stated) | 2.78
2 | Cc1ccc(N2C[C@H]3CCN(Cc4ccncc4)C[C@H]3C2)nn1 | -9.91
3 | Cc1nn(C)c(C)c1C1CCCN1C(=O)c1ccc(N(C)C)nc1 (configuration not stated) | -0.439
4 | Cc1nsc(C(=O)N2CCc3ccccc3C2)n1 | 28.2
5 | Cc1ncsc1CCC(=O)NCc1cc2n(n1)CCN(C(=O)N(C)C)C2 | 13.9
6 | CN(C)C(=O)CCCS(=O)(=O)Cc1cc(Cl)c2c(c1)OCCO2 | -4.96
7 | CCCc1nc2c(c(C)c(C)n2Cc2cccnc2)c(N)c1CC | 54.7
8 | COc1cc([C@@H]2N[C@H](c3nccs3)Cc3ccsc32)cc(OC)c1OC | -0.55
9 | Cc1nc(CN2CCO[C@@H]3CNCC[C@@H]3C2)cs1 | -5.71
10 | COc1cccc(N2CCC(N3C[C@@H](NC(C)=O)[C@H](C(C)C)C3)CC2)c1 | -6.54
11 | Cc1n[nH]c(C)c1NC(=O)CN1CCCC1c1c(C)nn(C)c1C (configuration not stated) | 1.54
12 | CC(=O)N1CCn2c(-c3ccccc3)cnc2C12CCNCC2 | -6.82
13 | CN1CCCC1CNC(=O)CCCOc1ccc(Br)cc1 (configuration not stated) | -3.72
14 | CC(C)c1nc(CN(C)C(=O)Cn2nc3ccccc3n2)no1 | -10.4
15 | COc1c(CNC2CCN(CC(=O)NC3CC3)CC2)c(C)nn1C | 2.59
16 | Cc1csc2c(=O)n3c(nc12)CCN(C(=O)c1cccnc1)CC3 | -19.9
17 | Cn1nc(C(=O)N2CCOCC2)cc1C(=O)Nc1c(Cl)cccc1Cl | -2.69
18 | O=C(CN1CCOCC1)Nc1ncc(Br)cc1Br | -5.32
19 | Cc1csc(CCNC(=O)N2CCC(C(N)=O)CC2)n1 | -16.7
20 | Cc1cccc(-c2c[nH]c(C3CCCN3C(=O)Cn3cc(C)cn3)n2)c1 (configuration not stated) | 6.62
21 | CSCCc1c(-c2ccccc2)ncn1CC(C)(C)N1CCOCC1 | -11.9
22 | CS(=O)(=O)CCn1ccc(NC(=O)c2c(F)cccc2F)n1 | -12.1
23 | CC(C)n1c(C(=O)N2CCCC2)nc2c1CCN(C)C2 | -5.23

Row | Compound | cytotoxicity at 70.5 h [%]
24 | Cc1cccc(CN2CCC(c3csc4nccn34)CC2)n1 | 0.645
25 | COc1cc(C)c(CNC(C)c2csc(C3CC3)n2)cc1OC (configuration not stated) | -4
26 | Cc1noc(CN(Cc2cccs2)C2CCS(=O)(=O)C2)n1 (configuration not stated) | -3.18
27 | CCN(CC)C(=O)C1CCCN(c2ncnc3oc(C)nc23)C1 (configuration not stated) | -5.71
28 | CN(C)CC(=O)N1C[C@@H]2CC[C@H](Oc3ccccc3)[C@@H]2C1 | -0.0251
29 | Cc1cc(C)c2c(NCC3(O)CCCCC3)ncnc2n1 | -2.73
30 | CC(=O)N1CCCC(Cc2cncc(Br)c2)C1 (configuration not stated) | -1.98
31 | O=C(NCC1CCOC1)c1csc(-c2cccc(Cl)c2)n1 (configuration not stated) | 1.75
32 | CC(=O)Nc1nc(-c2ccc(F)cc2)c[nH]1 | 36.5
33 | Cc1nccc(CNC(=O)NCC(C)Oc2ccccc2F)n1 (configuration not stated) | 10.9
34 | Cc1cc(NC(=O)Cn2cc(C#N)c(=O)c3cc(Br)ccc32)no1 | 0.537
35 | O=C(c1cccnc1)N1CCCC2(COCCN(c3ccccc3)C2)C1 (configuration not stated) | -16
36 | C1CCN(CCN2CCCCC2C2OCCO2)CC1 (configuration not stated) | 3.91
37 | O=C(O)[C@@H]1CN(C(=O)c2ccc(O)cc2)C[C@H]1c1cccc(F)c1 | 14.4
38 | CSc1ccc(C(=O)N2C[C@H]3CC[C@@H]2CN(Cc2cccnc2)C3)cc1 | -5.35
39 | Cc1ccc(CNC(=O)CCNS(C)(=O)=O)cc1 | -5.54
40 | COc1ccccc1S(=O)(=O)N1CCC2(CC1)[C@H](O)C[C@@H]2O | -10.2
41 | COC[C@@H]1CC[C@H]2[C@H](CCN2S(=O)(=O)c2cccc(C)c2)O1 | -11.1
42 | COCCCN1C(=O)CC[C@H]2CN(c3cc(C(N)=O)ccn3)CC[C@H]21 | -7.97
43 | CCc1ncnc2c1CCN(C(=O)c1ccncc1F)CC2 | -6.52
44 | O=C(CCc1ccc2c(c1)OCO2)Nc1cccnc1-n1cncn1 | -2.15
45 | CS(=O)(=O)NCC(=O)NC1(c2ccc(Cl)c(Cl)c2)CC1 | -2.05
46 | O=C(CN1CCC(c2ccnn2CCO)CC1)NCC1CC1 | 10.7

Row | Compound | cytotoxicity at 70.5 h [%]
47 | CC(O)CNCc1c(C(C)C)nn(C)c1N1CCOCC1 (configuration not stated) | -0.301
48 | CCC(CO)N(Cc1cccnc1)C(=O)c1ccncc1F (configuration not stated) | -9.31
49 | O=C(c1cscn1)N(CCCO)S(=O)(=O)c1cccs1 | 0.658
50 | O=C(Nc1cc(C(F)(F)F)c[nH]c1=O)C1CCCO1 (configuration not stated) | -7.79
51 | CCC(=O)N1CCC(c2ncncc2C)CC1 | -1.94
52 | O=C(NCCCn1ccnc1)C1COCC(=O)N1Cc1ccccc1 (configuration not stated) | -16
53 | CCOc1ccc(NC(=O)Nc2cnc(N3CCOCC3)nc2)cc1 | 3.88
54 | CC(O)CN1CCN(Cc2csc(-c3cnn(C)c3)n2)CC1 (configuration not stated) | -9.86
55 | CCN(CC)c1ncc(Cl)c(C(=O)NC2CCc3nccn3C2)n1 (configuration not stated) | -13.5
56 | Cc1[nH]ncc1CCCNC(=O)Nc1ccc(F)cc1 | 3.38
57 | CS(=O)(=O)Cc1nc(C2CC2)nn1-c1ccccn1 | 4.03
58 | CC(C)N1CCC(c2nc3ccc(-c4ccnn4C)cn3n2)CC1 | 19.8
59 | COCC(O)CN1CCC(=O)N(CC(=O)C(C)(C)C)Cc2ccccc21 (configuration not stated) | -4.8
60 | Cc1oncc1C(=O)NCc1cc(=O)n2c(n1)CN(C)CCC2 | -14.9
61 | O=C1CO[C@@H]2CN(S(=O)(=O)c3ccc(F)cc3)C[C@H]2N1 | 15.2
62 | CCOc1nnc(CN2CCC(N(C)Cc3noc(C)n3)C2)s1 (configuration not stated) | -8.7
63 | CC(=O)NC1CCCN(C(=O)CCc2cccnc2)C1 (configuration not stated) | 19.2
64 | O=C(NCC1CC1)C12CC(CN1Cc1nccs1)C2 | -9.03
65 | COc1ccc(NCc2nc(=O)n(CCC(C)C)[nH]2)cc1 | -14.5
66 | CC(OCC(F)(F)F)C(=O)N1CCCC1 (configuration not stated) | -61.3
67 | CCC(CNC(=O)c1nc(=O)[nH][nH]1)Oc1cccc(F)c1 (configuration not stated) | 0.426
68 | COc1ccc2c(c1)CC(C1CCOCC1)N(C(=O)c1ccn(C)n1)C2 (configuration not stated) | 2.06
69 | Cc1csc2c(C3CCCN(C(=O)CCn4ccnc4)C3)nc(C)n12 (configuration not stated) | 17.3

Row | Compound | cytotoxicity at 70.5 h [%]
70 | CC(=O)N1CCCN(C(=O)c2cnc(OC(C)C)c(Cl)c2)CC1 | -11.9
71 | CC(C)c1ncc(CN2C[C@@H](CN3CCC(CO)CC3)[C@@H](CO)C2)cn1 | -6.31
72 | c1coc(-c2noc(CN3CCCCC3Cn3cncn3)n2)c1 (configuration not stated) | 5.99
73 | CCN(CC)C(=O)CC[C@@H]1CNC(=O)[C@@H]2C[C@H](NC(=O)C3CC3)CN12 | -2.96
74 | CCN(CC1CCOC1)C(=O)Nc1ccc(N2CCCC2)nc1 (configuration not stated) | -0.947
75 | COc1ccccc1CC(=O)N1CC[C@@]2(CCCO2)[C@@H](OC)C1 | 25.6
76 | Cn1c(CNc2c(F)cccc2-n2cccn2)cc(=O)n(C)c1=O | 0.334
77 | O=C(NCCc1cc(=O)[nH]cn1)c1[nH]nc2c1CCCC2 | -5.79
78 | O=C(NCc1ccccn1)NCC(c1ccco1)N1CCCC1 (configuration not stated) | -1.51
79 | COCC1(C(=O)N[C@H]2CN(c3noc(C)n3)C[C@@H]2C2CC2)CCC1 | -1.28
80 | COc1cccc(CNC[C@@]2(COc3cccnc3)C[C@@H](O)[C@@H](O)C2)c1 | -3.95
81 | COCC1CN(C(=O)Nc2cc(Cl)cc(Cl)c2)CCO1 (configuration not stated) | -5.22
82 | CN(C(=O)CN(Cc1cccc(O)c1)C1CCC(O)CC1)C1CC1 (configuration not stated) | -6.65
83 | Cn1cnc2c1C(COCC1CC1)CN(c1ncccn1)C2 (configuration not stated) | 2.85
84 | Cc1nn(C)c(N2CCOCC2)c1CNC1COc2ccccc2C1 (configuration not stated) | 27.5
85 | Cc1c(C(C)NC(=O)C2CCCCC2)cnn1C (configuration not stated) | 5.03
86 | CNC(=O)c1ccc(C(=O)N2CCCC(n3cc(C)cn3)C2)cn1 (configuration not stated) | 40.9
87 | Clc1cccc2c1CCN(Cc1nc(CC3CC3)no1)C2 | -5.71
88 | Cn1cc(C[C@H]2[C@H](O)CCN2C(=O)C2CCCC2)cn1 | -2.64
89 | Clc1ccc(C2(NCc3noc(C4CC4)n3)CCCC2)cc1 | -0.425
90 | Cc1cc(N(C)CCOc2ccccc2F)nc(N)n1 | -2.43
91 | Cc1ccc(C(=O)NC2CCN(Cc3noc(C(C)(C)C)n3)CC2)s1 | -14.3
92 | CN(C)Cc1cnc(C2CN(C(=O)c3ccccc3Cl)CCO2)[nH]1 (configuration not stated) | -1.46

Row | Compound | cytotoxicity at 70.5 h [%]
93 | Cc1cc(C(=O)NC2CCc3c(ccc(=O)n3CCN(C)C)C2)no1 (configuration not stated) | -3.71
94 | N[C@H]1CN(C(=O)c2ccccc2OCc2ccccc2)C[C@@H]1C1CC1 | -11.7
95 | CN(C)C1CCCN(Cc2cccc(Cn3cccn3)c2)CC1 (configuration not stated) | -1.58
96 | CCNC(=O)[C@@H]1CCCN1[C@@H](C(=O)NC)c1ccccc1 | -8.33
97 | Cc1ccccc1N(CC(=O)NCCc1nnc2n1CCC2)S(C)(=O)=O | -4.09
98 | CN(CC(O)C(F)(F)F)C(=O)Nc1cccc(C(F)F)c1 (configuration not stated) | -7.43
99 | CC(C)CN1CCC(N2CCC(C(=O)N(C)C)CC2)CC1 | 3.98
100 | COCCO[C@H]1CCN(Cc2cccnc2)[C@H]1Cc1cccnc1 | 17.5
101 | CCN(CC)S(=O)(=O)N1CC[C@H](c2ccccc2)[C@H]2NCCCC[C@H]21 | -3.25
102 | Cc1c(NC(=O)NC2CN3CCC2CC3)cccc1C(=O)N1CCCC1 (configuration not stated) | 37.5
103 | CC(C)=CCS(=O)(=O)Cc1noc(CC(C)C)n1 | -1.31
104 | CC(C)n1nc(CNc2ncccn2)c2c1CN(C1CCOCC1)CC2 | -17.3
105 | Cc1ncsc1CN1C[C@@H](OCC(=O)N(C)C)[C@H]2OCCC[C@H]21 | -11.1
106 | CN(CCCNC(=O)c1ccc(C#N)cc1)CC(F)(F)F | 5.13
107 | CN1CCC(c2n[nH]cc2-c2ccnc(N)c2)C1 (configuration not stated) | 0.193
108 | Cc1nc(N2CCOCC2)nc2c1CCN(C(=O)C1CC1)CC2 | -13.2
109 | CCc1c(C)n(CC(=O)OC)c2nc3ccccc3n2c1=O | -14.1
110 | Cc1noc(CN2C[C@H]3CC[C@@H]2CN(C2Cc4ccccc4C2)C3)n1 | 4.75
111 | O=C1CCCN1CCCNCc1cc(O)c2cccc(Cl)c2n1 | 21
112 | CS(=O)(=O)N1C[C@@H](NC(=O)c2ccno2)[C@@H]2OCCC[C@@H]21 | -12.2
